Each structure is given as a SMILES string. Counter-ions that a name gives are not always drawn.

14 molecules from US9765039B2, “Biaryl derivatives as bromodomain inhibitors” (Zenith Epigenetics Ltd., priority 2012, dated 2017) can be followed below.

One series deals with T1, Brd4 bromodomain 1 (Homo sapiens, UniProt O60885).
T1 construct: made in house; host or cells: E. coli BL21(DE3)
Briefly: Inhibition of tetra-acetylated histone H4 binding to BET bromodomains (TR-FRET). Also noted: key: Active: Compounds with an IC50 value less than 30 μM were deemed to be active.; Not Active: Compounds with an IC50 value less than 30 μM were deemed to be active. Conditions: first bromodomain of Brd4, tetra-acetylated histone H4 peptide. The procedure: Proteins were cloned and overexpressed with a N-terminal 6×His tag, then purified by nickel affinity followed by size exclusion chromatography. Briefly, E. coli BL21(DE3) cells were transformed with a recombinant expression vector encoding N-terminally Nickel affinity tagged bromodomains from Brd2, Brd3, Brd4. Cell cultures were incubated at 37° C. with shaking to the appropriate density and induced overnight with IPTG. The supernatant of lysed cells was loaded onto Ni-IDA column for purification. Eluted protein was pooled, concentrated and further purified by size exclusion chromatography. Fractions representing monomeric protein were pooled, concentrated, aliquoted, and frozen at −80° C. for use in subsequent experiments.
Binding of tetra-acetylated histone H4 and BET bromodomains was confirmed by a Time Resolved Fluorescence Resonance Energy Transfer (TR-FRET) method. N-terminally His-tagged bromodomains (200 nM) and biotinylated tetra-acetylated histone H4 peptide (25-50 nM, Millipore) were incubated in the presence of Europium Cryptate-labeled streptavidin (Cisbio Cat. #610SAKLB) and XL665-labeled monoclonal anti-His antibody (Cisbio Cat. #61HISXLB) in a white 96 well microtiter plate (Greiner). For inhibition assays, serially diluted test compound was added to these reactions in a 0.2% final concentration of DMSO. Final buffer concentrations were 30 mM HEPES pH 7.4, 30 mM NaCl, 0.3 mM CHAPS, 20 mM phosphate pH 7.0, 320 mM KF, 0.08% BSA). After 2 hours incubation at room temperature, the fluorescence by FRET was measured at 665 and 620 nm by a SynergyH4 plate reader (Biotek). Illustrative results with the first bromodomain of Brd4 are shown below (Table 1). The binding inhibitory activity was shown by a decrease in 665 nm fluorescence relative to 620 nm. IC50 values were determined from a dose response curve.
In general terms: Time-resolved FRET reads energy transfer from a long-lived donor to a nearby acceptor.

The next series deals with c-myc. The experiment in a line: Inhibition of c-myc expression in cancer cell lines (mRNA, real-time PCR). Type of series: cell-based. Also noted: key: Active: Compounds with an IC50 value less than 30 μM were deemed to be active. Conditions: Human AML MV4-11 cells, 3 hours. The procedure:
MV4-11 cells (2.5×10^4 cells) were plated in 96 well U-bottom plates with test compound or DMSO (0.1%), and incubated for 3 hours at 37° C. Cells were then harvested by centrifugation, lysed, and mRNA was isolated using the mRNA catcher plus kit (Invitrogen). Reverse transcription of the mRNA and duplex amplification of the c-myc and cyclophilin cDNAs was performed using the RNA Ultrasense kit (Invitrogen) and a ViiA7 real-time PCR machine (Applied Biosystems). IC50 values were determined from a dose response curve.
Background: In qPCR the cycle at which signal appears reflects the starting amount.

A further series relates to Human AML MV-4-11 cells. Briefly: Inhibition of cell proliferation in cancer cell lines (CellTiter Aqueous One). Type of series: cell-based. Also noted: key: Active: Compounds with an IC50 value less than 30 μM were deemed to be active.; Not Active: Compounds with an IC50 value less than 30 μM were deemed to be active. The conditions noted are these: 72 hours. The method, then:
MV4-11 cells: 96-well plates were seeded with 5×10^4 cells per well of exponentially growing human AML MV-4-11 (CRL-9591) cells and immediately treated with two-fold dilutions of test compounds, ranging from 30 μM to 0.2 μM. Triplicate wells were used for each concentration, as well as a media only and three DMSO control wells. The cells and compounds were incubated at 37° C., 5% CO2 for 72 hours before adding 20 μL of the CellTiter Aqueous One Solution (Promega) to each well and incubating at 37° C., 5% CO2 for an additional 3-4 hours. The absorbance was taken at 490 nm in a spectrophotometer and the percentage of proliferation relative to DMSO-treated cells was calculated after correction from the blank well. IC50 were calculated using the GraphPad Prism software.

In another series the test system is hIL-6 mRNA. The experiment in a line: Inhibition of hIL-6 mRNA transcription in LPS-stimulated U937 macrophages. Type of series: cell-based, human. Also noted: key: Active: Compounds with an IC50 value less than 30 μM are deemed to be active. Conditions: U937 differentiated into macrophages, 1 h pretreatment, lipopolysaccharide 3 h. The method, then:
In this example, hIL-6 mRNA in tissue culture cells was quantitated to measure the transcriptional inhibition of hIL-6 when treated with a compound of the present disclosure.
A human leukemic monocyte lymphoma cell line (U937) was plated (3.2×10^4 cells per well) in a 96-well plate in 100 μL RPMI-1640 containing 10% FBS and penicillin/streptomycin, and differentiated into macrophages for 3 days in 60 ng/mL PMA ([…]) at 37° C. in 5% CO2 prior to the addition of the compound of interest. The cells were pretreated for 1 h with the test compound prior to stimulation with […] lipopolysaccharide from Escherichia coli. The cells were incubated at 37° C. for 3 h before the cells were harvested. At time of harvest, the spent media was removed from the cells and the cells were rinsed in 200 μL PBS. Cell lysis solution (70 μL) was added the cells in each well and incubated for 5-10 min at room temperature, to allow for complete cell lysis and detachment. mRNA was then prepared using the “mRNA Catcher PLUS plate” (Invitrogen), according to the protocol supplied. After the last wash, as much wash buffer as possible was aspirated without allowing the wells to dry. Elution buffer (E3, 70 μL) was then added to each well. mRNA was then eluted by incubating the mRNA Catcher PLUS plate with Elution Buffer for 5 min at 68° C. and then immediately placing the plate on ice.
The eluted mRNA isolated was then used in a one-step quantitative real-time PCR reaction, using components of the Ultra Sense Kit together with Applied Biosystems primer-probe mixes. Real-time PCR data was analyzed, normalizing the Ct values for hIL-6 to an internal control, prior to determining the fold induction of each unknown sample, relative to the control.

Consider `COc1ccc2c(=O)[nH]c(-c3ccc(OCCO)c(-c4ccc([S+](C)[O-])cc4)n3)nc2c1` (stereo not drawn) [Example 60, 2-(5-(2-Hydroxyethoxy)-6-(4-(methylsulfinyl)phenyl)pyridin-2-yl)-7-methoxyquinazolin-4(3H)-one], for which the melting point (usually the temperature of the solid-liquid transition) was in the range of 266 to 267 °C. On Brd4 bromodomain 1, the “FRET activity (IC50 < 30 μM)” value was “Active”. Further, in the series with c-myc, the “c-myc activity (IC50 < 30 μM)” value is “Not Active”. Besides, in the series with Human AML MV-4-11 cells, the “cell proliferation activity (IC50 < 30 μM)” value (“cell proliferation activity” below) was “Not Active”. Moreover, in the series with hIL-6 mRNA, the “IL-6 activity (IC50 < 30 μM)” value is reported as “Not Active”.
Regarding `COc1cc(OC)c2c(=O)[nH]c(-c3cccc(-c4ccc([S+](C)[O-])cc4)c3)nc2c1` (stereo not drawn) [Example 47, 5,7-Dimethoxy-2-(4′-(methylsulfinyl)-[1,1′-biphenyl]-3-yl)quinazolin-4(3H)-one], the melting point is greater than 300 °C. Also, on Brd4 bromodomain 1, the “FRET activity (IC50 < 30 μM)” value is “Not Active”. The “IL-6 activity (IC50 < 30 μM)” value in the series with hIL-6 mRNA is “Not Active”.
Regarding `COc1cc(OC)c2c(=O)[nH]c(-c3cc(-c4ccc([S+](C)[O-])cc4)c4[nH]ccc4c3)nc2c1` (stereo not drawn) [Example 52, 5,7-Dimethoxy-2-(7-(4-(methylsulfinyl)phenyl)-1H-indol-5-yl)quinazolin-4(3H)-one], the melting point was 316 °C (dec.). Besides, on Brd4 bromodomain 1, the “FRET activity (IC50 < 30 μM)” value was “Active”. For the same molecule, the “c-myc activity (IC50 < 30 μM)” value in the series with c-myc was “Not Active”. The “cell proliferation activity” value in the series with Human AML MV-4-11 cells is recorded as “Not Active”. Also, the “IL-6 activity (IC50 < 30 μM)” value in the series on hIL-6 mRNA is “Active”.
With `COc1cc(OC)c2c(=O)[nH]c(-c3ccc(OCC[N+]4([O-])CCCC4)c(-c4ccc(S(C)(=O)=O)cc4)n3)nc2c1` [Example 63, 1-(2-((6-(5,7-Dimethoxy-4-oxo-3,4-dihydroquinazolin-2-yl)-2-(4-(methylsulfonyl)phenyl)pyridin-3-yl)oxy)ethyl)pyrrolidine 1-oxide], the melting point was 167 to 170 °C. Besides, at Brd4 bromodomain 1, the “FRET activity (IC50 < 30 μM)” value is “Active”. In the series with c-myc, the “c-myc activity (IC50 < 30 μM)” value is “Not Active”. The “cell proliferation activity” value in the series on Human AML MV-4-11 cells is given as “Not Active”. In the series with hIL-6 mRNA, the “IL-6 activity (IC50 < 30 μM)” value is given as “Active”.
Molecule `COc1cc(OC)c2c(=O)[nH]c(-c3ccc(OCCNC(C)C)c(-c4ccccc4S(C)(=O)=O)n3)nc2c1` [Example 32, 2-(5-(2-(Isopropylamino)ethoxy)-6-(2-(methylsulfonyl)phenyl)pyridin-2-yl)-5,7-dimethoxyquinazolin-4(3H)-one] yielded a melting point of 178 to 180 °C. Also, the “FRET activity (IC50 < 30 μM)” value on Brd4 bromodomain 1 is on record as “Active”. Moreover, the “IL-6 activity (IC50 < 30 μM)” value in the series with hIL-6 mRNA was “Not Active”.
Consider `COc1cc(OC)c2c(=O)[nH]c(-c3ccc(OCCO)c(-c4ccccc4S(C)(=O)=O)n3)nc2c1` [Example 30, 2-(5-(2-Hydroxyethoxy)-6-(2-(methylsulfonyl)phenyl)pyridin-2-yl)-5,7-dimethoxyquinazolin-4(3H)-one], for which the melting point was in the range of 92 to 93 °C. The “FRET activity (IC50 < 30 μM)” value on Brd4 bromodomain 1 was “Active”.
On to `COc1cc(OC)c2c(=O)[nH]c(-c3ccc(OCCNC(C)C)c(-c4cccc(S(C)(=O)=O)c4)n3)nc2c1` [Example 33, 2-(5-(2-(Isopropylamino)ethoxy)-6-(3-(methylsulfonyl)phenyl)pyridin-2-yl)-5,7-dimethoxyquinazolin-4(3H)-one], for which the melting point lay in the range of 222 to 223 °C. At Brd4 bromodomain 1, the “FRET activity (IC50 < 30 μM)” value was “Active”. In addition, the “IL-6 activity (IC50 < 30 μM)” value in the series with hIL-6 mRNA was “Not Active”.
In the same order, the values of `COc1cc(OC)c2c(=O)[nH]c(-c3ccc(OCCO)c(-c4ccccc4)n3)nc2c1` [Example 21, 2-(5-(2-Hydroxyethoxy)-6-phenylpyridin-2-yl)-5,7-dimethoxyquinazolin-4(3H)-one] are 240 to 242 °C, “Active” and “Active”.
The matching figures for `COc1cccc2nc(-c3ccc(OCCO)c(-c4ccc(S(C)(=O)=O)cc4)n3)[nH]c(=O)c12` [Example 62, 2-(5-(2-Hydroxyethoxy)-6-(4-(methylsulfonyl)phenyl)pyridin-2-yl)-5-methoxyquinazolin-4(3H)-one]: greater than 300 °C, “Active” and “Active”.
In turn, `C[S+]([O-])c1ccc(-c2nc(-c3nc4ccccc4c(=O)[nH]3)ccc2OCCO)cc1` (stereo not drawn) [Example 61, 2-(5-(2-Hydroxyethoxy)-6-(4-(methylsulfinyl)phenyl)pyridin-2-yl)quinazolin-4(3H)-one] displayed a melting point of 261 to 262 °C. Also, the “FRET activity (IC50 < 30 μM)” value on Brd4 bromodomain 1 is given as “Active”.
Regarding `COc1cc(OC)c2c(=O)[nH]c(-c3ccc(OCCO)c(-c4cccc(S(C)(=O)=O)c4)n3)nc2c1` (as salt: methanesulfonate) [Example 36, 2-(5-(2-Hydroxyethoxy)-6-(3-(methylsulfonyl)phenyl)pyridin-2-yl)-5,7-dimethoxyquinazolin-4(3H)-one methanesulfonate], the melting point lay in the range of 218 to 220 °C.
`CC(C)NCCOc1ccc(-c2nc3ccccc3c(=O)[nH]2)nc1-c1ccc(S(C)(=O)=O)cc1` [Example 68, 2-(5-(2-(Isopropylamino)ethoxy)-6-(4-(methylsulfonyl)phenyl)pyridin-2-yl)quinazolin-4(3H)-one]: the melting point fell in the range of 188 to 189 °C. Also, the “FRET activity (IC50 < 30 μM)” value on Brd4 bromodomain 1 was “Active”.
`COc1cc(OC)c2c(=O)[nH]c(-c3ccc(OCCO)c(-c4ccc(S(C)(=O)=O)cc4)n3)nc2c1` (as salt: methanesulfonate) [Example 25, 2-(5-(2-Hydroxyethoxy)-6-(4-(methylsulfonyl)phenyl)pyridin-2-yl)-5,7-dimethoxyquinazolin-4(3H)-one methanesulfonate]: the melting point lay within 134 to 136 °C.
The same measure, in the same setting: then `COc1cc(OC)c2c(=O)[nH]c(-c3ccc(OCCO)c(-c4ccc(C(C)=O)cc4)n3)nc2c1` (as salt: hydrochloride) [Example 28, 2-(6-(4-Acetylphenyl)-5-(2-hydroxyethoxy)pyridin-2-yl)-5,7-dimethoxyquinazolin-4(3H)-one], with 232 to 234 °C.
